Test results: patent US8946266B2, “Substituted triazole and imidazole derivatives as gamma secretase modulators” (Janssen Pharmaceuticals, Inc., priority 2009, dated 2015)
Like-named read-outs stand apart in the source and are kept apart here.

Experiments:
Aβtotal [1] = assay: γ-secretase-modulating activity, Method 2: Aβtotal Alphalisa in supernatant of SKNBE2 cells carrying APP 695-wild type (Table 3b); type: cell-based; settings: overnight, read-out: IC50 Aβtot
Outline: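 SKNBE2 cells expressing wild-type APP 695 were incubated overnight at 37 °C, 5% CO2 with test compound at a range of concentrations. Aβtotal in supernatant was measured by AlphaLISA sandwich (N-terminal JRF/AβN/25 acceptor, biotinylated mid-region 4G8 donor); IC50 from 4-parameter fit of percent control versus log concentration.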

Aβtotal [2] = assay: In vivo efficacy, Method 1: brain soluble Aβtotal lowering 4 h after a single oral dose, ELISA (Table 4a); parameters: species or system mouse; settings: dose 30 mg/kg oral dosing
From the text: To determine whether acute administration of an Aβ42 lowering agent would reduce Aβ42 levels in vivo, non-transgenic rodents, e.g. mice or rats were used. Alternatively, two to three month old Tg2576 mice expressing APP695 containing the “Swedish” variant can be used or a transgenic mouse model developed by Dr. Fred Van Leuven (K.U. Leuven, Belgium) and co-workers, with neuron-specific expression of a clinical mutant of the human amyloid precursor protein [V717I] (Moechars et al., 1999 J. Biol. Chem. 274, 6483). Young transgenic mice have high levels of Aβ in the brain but no detectable Aβ deposition. At approximately 6-8 months of age, the transgenic mice start to display spontaneous, progressive accumulation of β-amyloid (Aβ) in the brain, eventually resulting in amyloid plaques within the subiculum, hippocampus and cortex. Animals treated with the Aβ42 lowering agent were examined and compared to those untreated or treated with vehicle and brain levels of soluble Aβ42 and total Aβ would be quantitated by standard techniques, for example, using ELISA. Treatment periods varied from hours (h) to days and were adjusted based on the results of the Aβ42 lowering once a time course of onset of effect could be established.
A typical protocol for measuring Aβ42 lowering in vivo is shown but it is only one of many variations that could be used to optimize the levels of detectable Aβ. For example, Aβ42 lowering compounds were formulated in 20% of Captisol® (a sulfobutyl ether of β-cyclodextrin) in water or 20% hydroxypropyl cyclodextrin. The Aβ42 lowering agents were administered as a single oral dose or by any acceptable route of administration to overnight fasted animals. After 4 h, the animals were sacrificed and Aβ42 levels were analysed.
Blood was collected by decapitation and exsanguinations in EDTA-treated collection tubes. Blood was centrifuged at 1900 g for 10 minutes (min) at 4° C. and the plasma recovered and flash frozen for later analysis. The brain was removed from the cranium and hindbrain. The cerebellum was removed and the left and right hemisphere were separated. The left hemisphere was stored at −18° C. for quantitative analysis of test compound levels. The right hemisphere was rinsed with phosphate-buffered saline (PBS) buffer and immediately frozen on dry ice and stored at −80° C. until homogenization for biochemical assays.
Mouse brains were resuspended in 10 volumes of 0.4% DEA (diethylamine)/50 mM NaCl pH 10 (for non-transgenic animals) or 0.1% 3-[(3-cholamidopropyl)-dimethyl-ammonio]-1-propanesulfonate (CHAPS) in tris buffered saline (TBS) (for transgenic animals) containing protease inhibitors (Roche-11873580001 or 04693159001) per gram of tissue, e.g. for 0.158 g brain, add 1.58 ml of 0.4% DEA. All samples were sonicated for 30 seconds on ice at 20% power output (pulse mode). Homogenates were centrifuged at 221.300×g for 50 min. The resulting high speed supernatants were then transferred to fresh tubes and were optionally further purified before the next step. A portion of the supernatant was neutralized with 10% 0.5 M Tris-HCl and this was used to quantify Aβtotal.
To quantify the amount of Aβ42 in the soluble fraction of the brain homogenates, commercially available Enzyme-Linked-Immunosorbent-Assay (ELISA) kits were used (e.g. Innotest® β-Amyloid(1-42), Innogenetics N.V., Ghent, Belgium). The Aβ42 ELISA was performed using the plate provided with the kit only. Briefly, the standards (a dilution of synthetic Aβ1-42) were prepared in 1.5 ml Eppendorf tube in Ultraculture, with final concentrations ranging from 25000 to 1.5 pg/ml. Samples, standards and blanks (60 μl) were added to the anti-Aβ42-coated plate (the capture antibody selectively recognizes the C-terminal end of the antigen). The plate was allowed to incubate overnight at 4° C. in order to allow formation of the antibody-amyloid complex. […]

Row | IC50 (Aβtotal [1]; Homo sapiens) | IC50 (Aβtotal [1]) | SMILES | Aβtotal (% Ctrl) _Mean (Aβtotal [2])
1 | > 10 µM | – | COc1cc(-c2nc(-c3ccccc3)n(C)n2)ccc1-n1cnc(C)c1 [Compound 9] | 0 % Ctrl
2 | > 10 µM | – | COc1cc(-c2nc(C)c(-c3ccccc3)[nH]2)ccc1-n1cnc(C)c1 [Compound 11] | −4 % Ctrl
3 | – | > 10 µM | COc1cc(-c2nc(Nc3ccc(F)cc3C(F)(F)F)n(C)n2)ccc1-n1cnc(C)c1 [Compound 15] | 3 % Ctrl
4 | – | 4.07 µM | COc1cc(-c2nc(Nc3cccc(C(F)(F)F)c3)n(C)n2)ccc1-n1cnc(C)c1 [Compound 146] | 14 % Ctrl
